For the data set the following is noted: Liquid, Ebulliometric method (Recirculating still).

Broadly, the vapor or sublimation pressure is the pressure of vapour in equilibrium with the condensed phase.

± gives the expanded uncertainty stated by the source.

`CO` [methanol]: the “vapor or sublimation pressure” value (337.68 K) was 101.3 ± 3.7 kPa.

On to `CCC(=O)OC` [methyl propanoate], for which the “vapor or sublimation pressure” value (352.62 K) was found to be 101.3 ± 3.7 kPa.

The record behind these values is the NIST ThermoML archive (doi:10.1016/j.jct.2019.01.004).
